Among the data in patent publication US20160257697A1, “THIOPHENE-SUBSTITUTED TETRACYCLIC COMPOUNDS AND METHODS OFUSE THEREOF FOR THE TREATMENT OF VIRAL DISEASES” (priority 2013, published 2016) are IC50 values, retold here.

Test in all cases: microbe, parasite or virus in culture
Type in all cases: cell-based, Hepatitis C virus (HCV)

The subject of assay [1] is HCV replicon 1B. The note with it: Replicon Assay B. Here is the method: (§1) In an alternate assay (“Replicon Assay B”), 1000 cells were seeded per well in a 384-well collagen coated black plate from Greiner bio-one (Cat #781946) in 5% FBS. Inhibitors of this invention were added at 24 h post-seeding, and the plates were incubated for 3 days. Cells were subsequently lysed with Qiagen lysis buffer (Cat #1062731) to extract the RNA. HCV replicon RNA level was measured by real-time PCR using the RNA-to-CT kit from Applied Biosystem (Cat #4392656) and genotype-specific primers and probes. The amplicon was located within NS5B. […] (SEQ. ID NO. 2); the probe sequence was FAM-labeled […] (SEQ. ID NO. 3).
(§2) The real-time RT-PCR reactions were run on ABI PRISM 7900HT or Viia7 Sequence Detection System using the following program: 48° C. for 30 minutes, 95° C. for 10 minutes, 40 cycles of 95° C. for 15 sec, 60° C. for 1 minutes.
(§3) Data for replicons 1A, 1AY93H and 2B were obtained using Replicon Assay A and data for replicons 1AQ30D and 1B were obtained using Replicon Assay B.
A general note: A replicon is a self-replicating genome or part of one, used to study replication in cells.

The subject of assay [2] is HCV replicon 1AQ30D. As to conditions: Replicon Assay B. Here is the method: as §1, §2, §3
In assay [3] the test system is HCV replicon 1A. The note with it: Replicon Assay A. An outline of the steps: (§4)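 Cells seeded 2000/well + compound; 0.5% DMSO, 5% FBS; harvest day 3, lyse. Multiplex TaqMan RT-PCR for replicon (Neo probe) and cyclophilin RNA; amounts from Ct vs log(ng) linear regression of replicon total RNA standards.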
The test system of assay [4] is HCV replicon 1AY93H. The note with it: Replicon Assay A. An outline of the steps: as §4
In assay [5] the test system is HCV replicon 2B. As to conditions: Replicon Assay A. An outline of the steps: as §4
The mark [6] stands for this setting: HCV replicon 1A Q30D, read-out: 1A Q30D IC50.
Where [7] appears, read: HCV replicon 1A Y93H, read-out: 1A Y93H IC50.
The mark [8] stands for this setting: HCV replicon 2B, read-out: 2B IC50.
[9] abbreviates: Hepatitis C virus, read-out: 1A Q30D IC50 (nM), replicon 1AQ30D.
Where [10] appears, read: Hepatitis C virus, read-out: 1A Y93H IC50 (nM), replicon 1AY93H.
[11] abbreviates: Hepatitis C virus, read-out: 2B IC50 (nM), replicon 2B.
Setting [12] is: read-out: 1A Y93H IC50, replicon 1AY93H.
The mark [13] stands for this setting: read-out: 1A Y93H IC50, HCV replicon 1A Y93H.
The mark [14] stands for this setting: read-out: 2B IC50, HCV replicon 2B.
Where [15] appears, read: Hepatitis C virus, read-out: 1A Q30D IC50, HCV replicon 1A Q30D.
[16] abbreviates: Hepatitis C virus, HCV replicon 1B.

Like-named read-outs stand apart in the source and are kept apart here.

Broadly, the IC50 is the point on the concentration scale where inhibition reaches its midpoint. Turning to `COC(=O)NC(C(=O)N1CCCC1c1ncc(-c2cc(F)c3c(c2)OC(c2ccc(C4CC4)s2)n2c-3cc3cc(-c4cnc(C5CC6CC6N5C(=O)C(NC(=O)OC)C5CCOCC5)[nH]4)ccc32)[nH]1)C(C)C` (mixture of isomers) [Compound 651], the 50% inhibitory concentration (IC50) in assay [1] (HCV replicon 1B) was 1.8 pM; in assay [2] (setting [6]), 0.0178 nM; in assay [3] (HCV replicon 1A) it was 1.3 pM; in assay [4] (setting [7]) it was 0.0023 nM; in assay [5] (setting [8]), 0.0081 nM.

As to `COC(=O)NC(C(=O)N1CCCC1c1ncc(-c2cc(F)c3c(c2)OC(c2cc4c(s2)CC(C)(C)C4)n2c-3cc3cc(-c4cnc(C5CCCN5C(=O)C(NC(=O)OC)C(C)C)[nH]4)ccc32)[nH]1)C(C)C` (mixture of isomers) [Compound 846], the IC50 in assay [1] (HCV replicon 1B) amounted to 2.8 pM; in assay [2] (setting [6]) it was 0.302 nM; in assay [3] (HCV replicon 1A) it was 2.9 pM; in assay [4] (setting [7]) it was 0.034 nM; in assay [5] (setting [8]), 0.039 nM.

Consider `COC(=O)NC(C(=O)N1CCCC1c1ncc(-c2cc(F)c3c(c2)OC(c2ccc(C4CC4)s2)n2c-3cc3cc(-c4cnc(C5CCCN5C(=O)C(NC(=O)OC)C5CCOC(C)C5)[nH]4)ccc32)[nH]1)C(C)C` (mixture of isomers) [Compound 849], for which the IC50 in assay [1] (HCV replicon 1B) amounted to 2.9 pM; in assay [2] (setting [6]), 0.029 nM; in assay [3] (HCV replicon 1A) it was 2.3 pM; in assay [5] (setting [8]), 0.005 nM.

With `COC(=O)N[C@H](C(=O)N1CCC[C@H]1c1ncc(-c2cc(F)c3c(c2)OC(c2ccc(C4CC4)s2)n2c-3cc3cc(-c4cnc([C@@H]5CCCN5C(=O)[C@@H](NC(=O)OC)C(C)C)[nH]4)ccc32)[nH]1)C(C)C` (single isomer, unassigned) [Compound 5], the IC50 in assay [2] (setting [9]) came out at 28.3 nM; in assay [3] (Hepatitis C virus, replicon 1A) it was 4.6 pM; in assay [4] (setting [10]), 0.95 nM; in assay [5] (setting [11]), 2.08 nM.

`COC(=O)N[C@H](C(=O)N1CCC[C@H]1c1ncc(-c2cc(F)c3c(c2)OC(c2ccc(OC)s2)n2c-3cc3cc(-c4cnc([C@@H]5CCCN5C(=O)[C@@H](NC(=O)OC)C(C)C)[nH]4)ccc32)[nH]1)C(C)C` (single isomer, unassigned) [Compound 20]: the IC50 came to 1.1 pM in assay [1] (Hepatitis C virus, replicon 1B); 0.38 nM in assay [2] (setting [9]); 0.014 nM in assay [4] (setting [12]); 0.051 nM in assay [5] (read-out: 2B IC50, replicon 2B).

Turning to `COC(=O)N[C@H](C(=O)N1[C@@H]2C[C@@H]2C[C@H]1c1ncc(-c2cc(F)c3c(c2)OC(c2ccc(C4CC4)s2)n2c-3cc3cc(-c4cnc([C@@H]5C[C@H]6C[C@H]6N5C(=O)[C@@H](NC(=O)OC)C(C)C)[nH]4)ccc32)[nH]1)C(C)C` (single isomer, unassigned) [Compound 88], the IC50 is 1.4 pM in assay [1] (replicon 1B); 0.3 nM in assay [2] (read-out: 1A Q30D IC50, replicon 1AQ30D); 0.007 nM in assay [4] (setting [12]); 0.59 nM in assay [5] (read-out: 2B IC50, replicon 2B).

Take `COC(=O)N[C@H](C(=O)N1CCC[C@H]1c1ncc(-c2cc(F)c3c(c2)OC(c2csc(C4CC4)c2)n2c-3cc3cc(-c4cnc([C@@H]5CCCN5C(=O)[C@@H](NC(=O)OC)C(C)C)[nH]4)ccc32)[nH]1)C(C)C` (single isomer, unassigned) [Compound 322]: the IC50 was found to be 0.82 nM in assay [2] (setting [9]), 0.0297 nM in assay [4] (setting [12]) and 0.29 nM in assay [5] (setting [11]).

Take `COC(=O)N[C@H](C(=O)N1CCC[C@H]1c1ncc(-c2cc(F)c3c(c2)OC(c2ccc(C(C)C)s2)n2c-3cc3cc(-c4cnc([C@@H]5CCCN5C(=O)[C@@H](NC(=O)OC)C5CCOCC5)[nH]4)ccc32)[nH]1)C(C)C` (single isomer, unassigned) [Compound 345]: the IC50 in assay [2] (setting [9]) was 0.0235 nM; in assay [4] (setting [12]), 0.0012 nM; in assay [5] (read-out: 2B IC50, replicon 2B), 0.0072 nM.

For the molecule `COCC(C)(C)c1ccc(C2Oc3cc(-c4cnc([C@@H]5CCCN5C(=O)[C@@H](NC(=O)OC)C(C)C)[nH]4)cc(F)c3-c3cc4cc(-c5cnc([C@@H]6CCCN6C(=O)[C@@H](NC(=O)OC)C(C)C)[nH]5)ccc4n32)s1` (single isomer, unassigned) [Compound 399], the 50% inhibitory concentration (IC50) came to 0.292 nM in assay [2] (setting [9]); 2.7 pM in assay [3] (Hepatitis C virus, replicon 1A); 0.0145 nM in assay [4] (setting [12]); 0.274 nM in assay [5] (read-out: 2B IC50, replicon 2B).

Turning to `COC(=O)NC(C(=O)N1CCC[C@H]1c1ncc(-c2ccc3c(c2)cc2n3C(c3ccc(CC4CC4)s3)Oc3cc(-c4cnc([C@@H]5CCCN5C(=O)[C@@H](NC(=O)OC)C(C)C)[nH]4)cc(F)c3-2)[nH]1)C1CCOC(C)(C)C1` (single isomer, unassigned) [Compound 410], the IC50 was 3.3 pM in assay [1] (HCV replicon 1B); 0.106 nM in assay [2] (read-out: 1A Q30D IC50, HCV replicon 1A Q30D); 0.0034 nM in assay [4] (setting [13]); 0.0041 nM in assay [5] (setting [14]).

Take `COC(=O)NC(C(=O)N1CCC[C@H]1c1ncc(-c2ccc3c(c2)cc2n3C(c3ccc(C4CC4)s3)Oc3cc(-c4cnc([C@@H]5CCCN5C(=O)[C@@H](NC(=O)OC)C(C)C)[nH]4)cc(F)c3-2)[nH]1)C1CC(C)(C)OC(C)(C)C1` (single isomer, unassigned) [Compound 421]: the IC50 in assay [2] (setting [15]) came to 0.126 nM; in assay [3] (HCV replicon 1A), 2.3 pM; in assay [4] (setting [13]) it was 0.0127 nM; in assay [5] (setting [14]), 0.0184 nM.

Turning to `COC(=O)N[C@H](C(=O)N1CCC[C@H]1c1ncc(-c2cc(F)c3c(c2)OC(c2ccc(C4(C)CC4)s2)n2c-3cc3cc(-c4cnc([C@@H]5CCCN5C(=O)[C@@H](NC(=O)OC)C(C)C)[nH]4)ccc32)[nH]1)C(C)C` (single isomer, unassigned) [Compound 835], the IC50 was determined as 1.4 pM in assay [1] (HCV replicon 1B), 3.5 pM in assay [3] (HCV replicon 1A), 0.943 nM in assay [4] (setting [7]) and 1.31 nM in assay [5] (setting [8]).

On to `COC(=O)N[C@H](C(=O)N1CCC[C@H]1c1ncc(-c2cc(F)c3c(c2)OC(c2ccc(C4CC4)s2)n2c-3c(C)c3cc(-c4cnc([C@@H]5CCCN5C(=O)[C@@H](NC(=O)OC)C(C)C)[nH]4)ccc32)[nH]1)C(C)C` (single isomer, unassigned) [Compound 841], for which the concentration for half-maximal inhibition (IC50) in assay [1] (HCV replicon 1B) stood at 1.7 pM; in assay [3] (HCV replicon 1A) it was 2.6 pM; in assay [4] (setting [7]) it was 0.849 nM; in assay [5] (setting [8]), 0.523 nM.

`COC(=O)NC(C(=O)N1CCC[C@H]1c1ncc(-c2ccc3c(c2)cc2n3C(c3cc4c(s3)CCC4)Oc3cc(-c4cnc([C@@H]5CCCN5C(=O)[C@@H](NC(=O)OC)C(C)C)[nH]4)cc(C)c3-2)[nH]1)C1CCOC(C)(C)C1` (single isomer, unassigned) [Compound 852]: the 50% inhibitory concentration (IC50) is 2.5 pM in assay [1] (setting [16]); more than 3 pM in assay [3] (Hepatitis C virus, HCV replicon 1A); 1.32 nM in assay [4] (setting [13]); 0.058 nM in assay [5] (setting [14]).

`CCCc1ccc(C2Oc3cc(-c4cnc([C@@H]5CCCN5C(=O)[C@@H](NC(=O)OC)C(C)C)[nH]4)cc(F)c3-c3cc4cc(-c5cnc([C@@H]6CCCN6C(=O)[C@@H](NC(=O)OC)C(C)C)[nH]5)ccc4n32)s1` (stereo partly drawn) [Compound 34]: the IC50 amounted to 0.16 nM in assay [2] (setting [9]); 2.8 pM in assay [3] (Hepatitis C virus, replicon 1A); 0.005 nM in assay [4] (setting [10]); 0.1 nM in assay [5] (setting [11]).

As to `COC(=O)NC(C(=O)N1CCC[C@H]1c1ncc(-c2cc(F)c3c(c2)OC(c2ccc(C4CC4)s2)n2c-3cc3cc(-c4cnc([C@@H]5C[C@H]6C[C@H]6N5C(=O)[C@@H](NC(=O)OC)C(C)C)[nH]4)ccc32)[nH]1)C(C)(C)F` (stereo partly drawn) [Compound 97], the IC50 in assay [1] (Hepatitis C virus, replicon 1B) came out at 2.4 pM; in assay [3] (Hepatitis C virus, replicon 1A) it was 1.1 pM; in assay [4] (setting [10]), 0.008 nM; in assay [5] (setting [11]), 0.036 nM.

For the molecule `COC(=O)NC(C(=O)N1CCC[C@H]1c1ncc(-c2cc(F)c3c(c2)OC(c2ccc(C4CC4)s2)n2c-3cc3cc(-c4cnc([C@@H]5CCCN5C(=O)[C@@H](NC(=O)OC)C5CCOCC5)[nH]4)ccc32)[nH]1)C(C)(C)F` (stereo partly drawn) [Compound 170], the 50% inhibitory concentration (IC50) in assay [1] (replicon 1B) stood at 3.3 pM; in assay [3] (replicon 1A), 1 pM; in assay [4] (setting [12]), 0.056 nM; in assay [5] (read-out: 2B IC50, replicon 2B), 0.05 nM.

`COC(=O)N[C@H](C(=O)N1CCC[C@H]1c1ncc(-c2cc(F)c3c(c2)OC(c2ccc(C4CC4)s2)n2c-3cc3cc(-c4cnc([C@@H]5C[C@H]6C[C@H]6N5C(=O)[C@@H](NC(=O)OC)C5CCOCC5)[nH]4)ccc32)[nH]1)C(C)C` (stereo partly drawn) [Compound 653]: the IC50 amounted to 1.55 pM in assay [1] (setting [16]); 0.00911 nM in assay [2] (setting [15]); 0.00135 nM in assay [4] (Hepatitis C virus, read-out: 1A Y93H IC50, HCV replicon 1A Y93H); 0.00144 nM in assay [5] (Hepatitis C virus, read-out: 2B IC50, HCV replicon 2B).
